# Measured values: PubChem BioAssay AID248 (DTP/NCI, 2004)
# Several values for one entry are separate records, joined by “and”; a condition that tells them apart may be missing. Equal entries are not always repeated. Toxic doses and inconclusive results are not listed.
# System: L1210 leukemia ip in BDF1 mice, survival T/C
# Assay: NCI In Vivo Anticancer Drug Screen. Data for tumor model L1210 Leukemia (intraperitoneal) in B6D2F1 (BDF1) mice
# Details: endpoint: mean survival time, higher = longer survival
# In short: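 Mice bearing the transplanted tumor received compound or vehicle. Survival of the treated group was divided by that of the vehicle-treated control group to give the ratio.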
# [1] = dose: 12.5 mg/kg/injection, schedule: Q01DX001 (ip), vehicle: carboxymethylcellulose (CMC)
# [2] = dose: 100.0 mg/kg/injection, schedule: Q01DX001 (ip), vehicle: saline
# [3] = dose: 200.0 mg/kg/injection, schedule: Q01DX001 (ip), vehicle: saline
# [4] = dose: 400.0 mg/kg/injection, schedule: Q01DX001 (ip), vehicle: saline
# [5] = dose: 50.0 mg/kg/injection, schedule: Q01DX001 (ip), vehicle: carboxymethylcellulose (CMC)
# [6] = dose: 100.0 mg/kg/injection, schedule: Q01DX001 (ip), vehicle: carboxymethylcellulose (CMC)
# [7] = dose: 100.0 mg/kg/injection, schedule: Q04DX002 (ip), vehicle: Klucel (hydroxypropylcellulose) (HPC)
# [8] = dose: 200.0 mg/kg/injection, schedule: Q01DX001 (ip), vehicle: carboxymethylcellulose (CMC)
# [9] = dose: 200.0 mg/kg/injection, schedule: Q04DX002 (ip), vehicle: Klucel (hydroxypropylcellulose) (HPC)
# [10] = dose: 400.0 mg/kg/injection, schedule: Q01DX001 (ip), vehicle: carboxymethylcellulose (CMC)
# [11] = dose: 400.0 mg/kg/injection, schedule: Q04DX002 (ip), vehicle: Klucel (hydroxypropylcellulose) (HPC)
# [12] = dose: 100.0 mg/kg/injection, schedule: Q01DX001 (ip), vehicle: saline with Tween-80
# [13] = dose: 100.0 mg/kg/injection, schedule: Q04DX003 (ip), vehicle: Klucel (hydroxypropylcellulose) (HPC)
# [14] = dose: 100.0 mg/kg/injection, schedule: Q04DX003 (ip), vehicle: saline with Tween-80
# [15] = dose: 200.0 mg/kg/injection, schedule: Q01DX001 (ip), vehicle: saline with Tween-80
# [16] = dose: 200.0 mg/kg/injection, schedule: Q04DX003 (ip), vehicle: Klucel (hydroxypropylcellulose) (HPC)
# [17] = dose: 200.0 mg/kg/injection, schedule: Q04DX003 (ip), vehicle: saline with Tween-80
# [18] = dose: 400.0 mg/kg/injection, schedule: Q01DX001 (ip), vehicle: saline with Tween-80
# [19] = dose: 400.0 mg/kg/injection, schedule: Q04DX003 (ip), vehicle: Klucel (hydroxypropylcellulose) (HPC)
# [20] = dose: 75.0 mg/kg/injection, schedule: Q01DX001 (ip), vehicle: saline
# [21] = dose: 150.0 mg/kg/injection, schedule: Q01DX001 (ip), vehicle: saline
# [22] = dose: 400.0 mg/kg/injection, schedule: Q04DX003 (ip), vehicle: saline with Tween-80
compound,measurement,setting,value
O=[N+]([O-])/C=C/C=C/c1ccco1,T/C,"dose: 6.25 mg/kg/injection, schedule: Q04DX002 (ip), vehicle: saline with Tween-80",97 % of control
same,T/C,"dose: 12.5 mg/kg/injection, schedule: Q04DX002 (ip), vehicle: saline with Tween-80",101 % of control
same,T/C,"dose: 25.0 mg/kg/injection, schedule: Q04DX002 (ip), vehicle: saline with Tween-80",97 % of control and 90 % of control
c1ccc(-c2cc3ccncc3c3ccccc23)cc1,T/C,"dose: 100.0 mg/kg/injection, schedule: Q04DX003 (ip), vehicle: water",102 % of control
same,T/C,"dose: 200.0 mg/kg/injection, schedule: Q04DX003 (ip), vehicle: water",96 % of control
same,T/C,"dose: 400.0 mg/kg/injection, schedule: Q04DX003 (ip), vehicle: water",96 % of control
C=CC[Si](C)(C)N1CC1,T/C,[1],108 % of control
O=C1c2cc(Br)ccc2NC1(c1c[nH]c2ccccc12)c1c[nH]c2ccccc12,T/C,"dose: 50.0 mg/kg/injection, schedule: Q01DX001 (ip), vehicle: saline",102 % of control
same,T/C,[2],100 % of control
same,T/C,[3],96 % of control
same,T/C,[4],93 % of control
O=C(c1ccccc1)C(c1ccccc1)(c1ccccc1)c1ccccc1,T/C,[5],90 % of control
same,T/C,[6],95 % of control
same,T/C,[7],97 % of control
same,T/C,[8],108 % of control
same,T/C,[9],94 % of control
same,T/C,[10],123 % of control
same,T/C,[11],97 % of control
CSc1ncnc2c1ncn2-n1cccc1,T/C,[12],104 % of control
same,T/C,"dose: 100.0 mg/kg/injection, schedule: Q01DX009 (ip), vehicle: Klucel (hydroxypropylcellulose) (HPC)",97 % of control
same,T/C,[13],93 % of control
same,T/C,[14],103 % of control
same,T/C,[15],106 % of control
same,T/C,"dose: 200.0 mg/kg/injection, schedule: Q01DX009 (ip), vehicle: Klucel (hydroxypropylcellulose) (HPC)",95 % of control
same,T/C,[16],96 % of control
same,T/C,[17],101 % of control
same,T/C,[18],95 % of control
same,T/C,"dose: 400.0 mg/kg/injection, schedule: Q01DX009 (ip), vehicle: Klucel (hydroxypropylcellulose) (HPC)",101 % of control
same,T/C,[19],98 % of control
Nc1ncnc2c1ncn2C1CC(COP(=O)(O)O)C(O)C1O (configuration not stated),T/C,"dose: 37.0 mg/kg/injection, schedule: Q04DX003 (ip), vehicle: saline",105 % of control
same,T/C,[20],107 % of control
same,T/C,"dose: 75.0 mg/kg/injection, schedule: Q04DX003 (ip), vehicle: saline",110 % of control
same,T/C,[21],87 % of control
same,T/C,"dose: 150.0 mg/kg/injection, schedule: Q04DX003 (ip), vehicle: saline",100 % of control
O=C1OC2(CCNCC2)C(=O)N1c1ccc(F)cc1,T/C,[1],104 % of control
same,T/C,"dose: 25.0 mg/kg/injection, schedule: Q01DX001 (ip), vehicle: carboxymethylcellulose (CMC)",101 % of control
CS(=O)(=O)OCCN(CCOS(C)(=O)=O)c1ccc(C=Nc2ccc(C(=O)O)c(O)c2)cc1,T/C,"dose: 6.25 mg/kg/injection, schedule: Q04DX003 (ip), vehicle: saline with Tween-80",117 % of control
same,T/C,"dose: 12.0 mg/kg/injection, schedule: Q01DX009 (ip), vehicle: saline with Tween-80",168 % of control
same,T/C,"dose: 16.5 mg/kg/injection, schedule: Q04DX003 (ip), vehicle: saline with Tween-80",112 % of control
same,T/C,"dose: 18.0 mg/kg/injection, schedule: Q01DX009 (ip), vehicle: saline with Tween-80",170 % of control
same,T/C,"dose: 25.0 mg/kg/injection, schedule: Q04DX003 (ip), vehicle: saline with Tween-80",121 % of control
same,T/C,"dose: 37.5 mg/kg/injection, schedule: Q04DX003 (ip), vehicle: saline with Tween-80",113 % of control
O=C(O)CCNc1ccccc1C(=O)O,T/C,[6],100 % of control
same,T/C,[8],96 % of control
same,T/C,[10],100 % of control
NC(=S)N/N=C/c1cc2c(cc1[N+](=O)[O-])OCO2,T/C,[5],98 % of control
same,T/C,[6],101 % of control
same,T/C,[8],93 % of control
COC1(OC)C2(Cl)C(Cl)=C(Cl)C1(Cl)C1C2CS1(=O)=O (configuration not stated),T/C,[5],100 % of control
same,T/C,[6],92 % of control
same,T/C,[8],100 % of control
same,T/C,[10],89 % of control
O=C(O)c1cc2ccccc2cc1O,T/C,"dose: 100.0 mg/kg/injection, schedule: Q04DX002 (ip), vehicle: gum acacia",102 % of control
same,T/C,"dose: 200.0 mg/kg/injection, schedule: Q04DX002 (ip), vehicle: gum acacia",94 % of control
O=C(O)C(Nc1ccc(Nc2ccccc2)cc1)c1ccccc1 (configuration not stated),T/C,[7],100 % of control
same,T/C,[9],103 % of control
same,T/C,[11],114 % of control
COc1cc2c(cc1OC)C(NC(C)C)CCCC2 (configuration not stated),T/C,[2],98 % of control
same,T/C,[3],95 % of control
Cc1ncc(CO)c(/C=N/OCc2nnc(Nc3ccccc3)s2)c1O,T/C,[14],92 % of control
same,T/C,[17],101 % of control
same,T/C,[22],106 % of control
CC(=N\N=C(N)N)/C(C)=N/N=C(N)N,T/C,[20],101 % of control
same,T/C,[21],98 % of control
Cc1nc(N)nc2c1CCC(Nc1ccccc1)S2 (configuration not stated),T/C,[13],106 % of control
same,T/C,[16],103 % of control
same,T/C,[19],92 % of control
CCC(Sc1ccccc1[N+](=O)[O-])[N+](=O)[O-] (configuration not stated),T/C,[13],105 % of control
same,T/C,[16],95 % of control
same,T/C,[19],100 % of control
CC(=O)NC(C(=O)O)C(C)C (configuration not stated),T/C,[2],97 % of control
same,T/C,[3],87 % of control
same,T/C,[4],99 % of control
CCCCCCC(C)CCCC (configuration not stated),T/C,[12],94 % of control
same,T/C,[15],91 % of control
same,T/C,[18],86 % of control
O=C(Nc1ncccn1)Nc1ccccc1C(F)(F)F,T/C,"dose: 100.0 mg/kg/injection, schedule: Q01DX009 (ip), vehicle: gum acacia",88 % of control
same,T/C,"dose: 200.0 mg/kg/injection, schedule: Q01DX009 (ip), vehicle: gum acacia",86 % of control
same,T/C,"dose: 400.0 mg/kg/injection, schedule: Q01DX009 (ip), vehicle: gum acacia",88 % of control
CCOc1ccc(OCC(=O)O)cc1,T/C,[13],93 % of control
same,T/C,[16],89 % of control
same,T/C,[19],89 % of control
OC1C2C3CCC(C3)C2C(O)C2C3CCC(C3)C12 (configuration not stated),T/C,"dose: 12.5 mg/kg/injection, schedule: Q01DX009 (ip), vehicle: saline with Tween-80",101 % of control
same,T/C,"dose: 25.0 mg/kg/injection, schedule: Q01DX009 (ip), vehicle: saline with Tween-80",101 % of control
CNc1ccc(C(=O)O)cc1OC,T/C,"dose: 100.0 mg/kg/injection, schedule: Q01DX009 (ip), vehicle: saline with Tween-80",95 % of control
same,T/C,"dose: 200.0 mg/kg/injection, schedule: Q01DX009 (ip), vehicle: saline with Tween-80",91 % of control
same,T/C,"dose: 400.0 mg/kg/injection, schedule: Q01DX009 (ip), vehicle: saline with Tween-80",88 % of control
NC1CCCCC1.[I][Pb]([I])([I])[I],T/C,[14],106 % of control
same,T/C,[17],95 % of control
same,T/C,[22],96 % of control
N#CC1=C(C#N)C(=O)C(c2ccccc2)=C(c2ccccc2)C1=O,T/C,"dose: 5.0 mg/kg/injection, schedule: Q01DX001 (ip), vehicle: saline",97 % of control
same,T/C,"dose: 10.0 mg/kg/injection, schedule: Q01DX001 (ip), vehicle: saline",97 % of control
same,T/C,"dose: 20.0 mg/kg/injection, schedule: Q01DX001 (ip), vehicle: saline",101 % of control
NCc1nc(C(=O)O)cs1,T/C,[2],110 % of control
same,T/C,"dose: 100.0 mg/kg/injection, schedule: Q01DX009 (ip), vehicle: saline",91 % of control
same,T/C,"dose: 100.0 mg/kg/injection, schedule: Q04DX003 (ip), vehicle: saline",116 % of control
same,T/C,[3],102 % of control
same,T/C,"dose: 200.0 mg/kg/injection, schedule: Q01DX009 (ip), vehicle: saline",87 % of control
same,T/C,"dose: 200.0 mg/kg/injection, schedule: Q04DX003 (ip), vehicle: saline",112 % of control
same,T/C,[4],112 % of control
same,T/C,"dose: 400.0 mg/kg/injection, schedule: Q01DX009 (ip), vehicle: saline",86 % of control
same,T/C,"dose: 400.0 mg/kg/injection, schedule: Q04DX003 (ip), vehicle: saline",96 % of control
